{"source": "paper PMC10419174", "about": "“WR1065 conjugated to thiol-PEG polymers as novel anticancer prodrugs: broad spectrum efficacy, synergism, and drug resistance reversal” (Frontiers in Oncology, 2023)", "test_in_all_cases": "cells", "key": {"Ovary TOV21G cells": {"test_system": "Ovary TOV21G cells", "conditions": "for Fold increase in efficacy: drug alone ÷ drug in 4SP65-DDP combination", "description": "(§1) The percentage of growth inhibition was calculated as follows: […]"}, "Ovary SKOV3 cells": {"test_system": "Ovary SKOV3 cells", "conditions": "for Fold increase in efficacy: drug alone ÷ drug in 4SP65-DDP combination", "description": "as §1"}, "human cancer cell lines": {"test_system": "human cancer cell lines", "description": "as §1"}, "Prostate LNCaP cells": {"test_system": "Prostate LNCaP cells", "description": "as §1"}, "[1]": {"conditions": "48-h treatment, amifostine ND = not definable up to 500 µM"}, "[2]": {"conditions": "drug alone, 48 h, 4SP65/cisplatin study"}, "[3]": {"conditions": "drug alone, 48 h, 4SP65/cisplatin study, ND = not definable, highest concentration in parentheses"}, "[4]": {"conditions": "4SP65: average across 15 cell lines, 48 h"}, "[5]": {"conditions": "15 cell lines for 4SP65, 11 for 1LP65"}, "[6]": {"conditions": "average of A549, H460, PPMMill, LNCaP"}, "[7]": {"conditions": "average of HCC38, MDA-MB-231, H1975, HMESO1, PANC1, DU145, PC3"}, "[8]": {"conditions": "averages of dose-response metrics across the panel"}, "[9]": {"conditions": "averages over 11 cell lines, minimal fold differences"}}, "note": "“And” between values parts separate entries of the source, which are not always exact repeats. Identical values can stand only once. Like-named read-outs stand apart in the source and are kept apart here. Marks after values point to notes of the source that are not given here."}
{"substance": "4-star-PEG-S-S-WR1065 [4SP65]", "values": [{"measurement": "CC50", "setting": "Ovary TOV21G cells", "result": 2.7, "unit": "µM"}, {"measurement": "gains in total growth inhibition and cytolytic effects, range", "setting": "Ovary TOV21G cells; 4SP65-cisplatin combined", "result": "2.4- to 3.2 fold"}, {"measurement": "GI50", "setting": "Ovary TOV21G cells; [1]", "result": "0.9 ± 0.4", "unit": "µM"}, {"measurement": "IC50", "setting": "Ovary TOV21G cells; [1]", "result": "1.2 ± 0.3", "unit": "µM"}, {"measurement": "TGI", "setting": "Ovary TOV21G cells; [1]", "result": "2.0 ± 0.4", "unit": "µM"}, {"measurement": "LC99, drug in combination (CMB)", "setting": "Ovary TOV21G cells; amount of each drug in combination, ratio 14% 4SP65:86% DDP, 48 h", "result": 0.95, "unit": "µM"}, {"measurement": "Dose reduction value 1LP65 ÷ 4SP65", "setting": "Ovary TOV21G cells; at GI50", "result": 24, "unit": "fold"}, {"measurement": "Dose reduction value AMF ÷ 4SP65", "setting": "Ovary TOV21G cells; at GI50", "result": 52, "unit": "fold"}, {"measurement": "Dose reduction value 1LP65 ÷ 4SP65", "setting": "Ovary TOV21G cells; at IC50", "result": 22, "unit": "fold"}, {"measurement": "Dose reduction value AMF ÷ 4SP65", "setting": "Ovary TOV21G cells; at IC50", "result": 41, "unit": "fold"}, {"measurement": "Dose reduction value 1LP65 ÷ 4SP65", "setting": "Ovary TOV21G cells; at LC50", "result": 19, "unit": "fold"}, {"measurement": "Dose reduction value 1LP65 ÷ 4SP65", "setting": "Ovary TOV21G cells; at LC99", "result": 31, "unit": "fold"}, {"measurement": "Dose reduction value 1LP65 ÷ 4SP65", "setting": "Ovary TOV21G cells; at TGI", "result": 27, "unit": "fold"}, {"measurement": "Fold increase in efficacy", "setting": "Ovary TOV21G cells; at GI50", "result": "2.3 (NS) fold"}, {"measurement": "Fold increase in efficacy", "setting": "Ovary TOV21G cells; at IC50", "result": "1.9 (NS) fold"}, {"measurement": "Fold increase in efficacy", "setting": "Ovary TOV21G cells; at LC50", "result": "3.0*** fold"}, {"measurement": "Fold increase in efficacy", "setting": "Ovary TOV21G cells; at LC99", "result": "3.2*** fold"}, {"measurement": "Fold increase in efficacy", "setting": "Ovary TOV21G cells; at TGI", "result": "2.4* fold"}, {"measurement": "GI50", "setting": "Ovary TOV21G cells; [2]", "result": "0.93 ± 0.37", "unit": "µM"}, {"measurement": "IC50", "setting": "Ovary TOV21G cells; [2]", "result": "1.2 ± 0.3", "unit": "µM"}, {"measurement": "LC99", "setting": "Ovary TOV21G cells; [2]", "result": "3.0 µM and 3.0 ± 0.2 µM"}, {"measurement": "TGI", "setting": "Ovary TOV21G cells; [2]", "result": "2.0 ± 0.4", "unit": "µM"}, {"measurement": "GI50", "setting": "Ovary SKOV3 cells; [1]", "result": "4 ± 0.8", "unit": "µM"}, {"measurement": "IC50", "setting": "Ovary SKOV3 cells; [1]", "result": "5.1 ± 0.9", "unit": "µM"}, {"measurement": "LC99", "setting": "Ovary SKOV3 cells; [1]", "result": "10.5 ± 1.5", "unit": "µM"}, {"measurement": "TGI", "setting": "Ovary SKOV3 cells; [1]", "result": "6.8 ± 0.9 µM and 6.8 µM"}, {"measurement": "fold more effective as a cytostatic agent than PRIMA-1 or APR-246", "setting": "Ovary SKOV3 cells; TP53-null SKOV3 cells", "result": "3.3- to 16 fold"}, {"measurement": "Dose reduction value 1LP65 ÷ 4SP65", "setting": "Ovary SKOV3 cells; at GI50", "result": 10, "unit": "fold"}, {"measurement": "Dose reduction value AMF ÷ 4SP65", "setting": "Ovary SKOV3 cells; at GI50", "result": 20, "unit": "fold"}, {"measurement": "Dose reduction value 1LP65 ÷ 4SP65", "setting": "Ovary SKOV3 cells; at IC50", "result": 8.9, "unit": "fold"}, {"measurement": "Dose reduction value AMF ÷ 4SP65", "setting": "Ovary SKOV3 cells; at IC50", "result": 58, "unit": "fold"}, {"measurement": "Dose reduction value 1LP65 ÷ 4SP65", "setting": "Ovary SKOV3 cells; at LC50", "result": 7.5, "unit": "fold"}, {"measurement": "Dose reduction value 1LP65 ÷ 4SP65", "setting": "Ovary SKOV3 cells; at LC99", "result": 9.4, "unit": "fold"}, {"measurement": "Dose reduction value 1LP65 ÷ 4SP65", "setting": "Ovary SKOV3 cells; at TGI", "result": 7.4, "unit": "fold"}, {"measurement": "Fold increase in efficacy", "setting": "Ovary SKOV3 cells; at GI50", "result": "1.5** fold"}, {"measurement": "Fold increase in efficacy", "setting": "Ovary SKOV3 cells; at IC50", "result": "1.8** fold"}, {"measurement": "Fold increase in efficacy", "setting": "Ovary SKOV3 cells; at LC50, GoE = gain of effect", "result": "1.3** fold"}, {"measurement": "Fold increase in efficacy", "setting": "Ovary SKOV3 cells; at LC99, GoE = gain of effect", "result": "1.3* fold"}, {"measurement": "Fold increase in efficacy", "setting": "Ovary SKOV3 cells; at TGI, GoE = gain of effect", "result": "1.5* fold"}, {"measurement": "GI50", "setting": "Ovary SKOV3 cells; [2]", "result": "4.3 ± 1", "unit": "µM"}, {"measurement": "IC50", "setting": "Ovary SKOV3 cells; [2]", "result": "5.2 ± 1", "unit": "µM"}, {"measurement": "LC99", "setting": "Ovary SKOV3 cells; [3]", "result": "10.0 ± 0.8", "unit": "µM"}, {"measurement": "TGI", "setting": "Ovary SKOV3 cells; [3]", "result": "7.3 ± 0.8", "unit": "µM"}, {"measurement": "fold more potent than 1LP65, average", "setting": "human cancer cell lines", "result": 10.4, "unit": "fold"}, {"measurement": "fold increases in cytostatic and cytolytic activities, range", "setting": "human cancer cell lines; 4SP65-cisplatin combined, H460 and SKOV3 cells", "result": "1.3- to 36 fold"}, {"measurement": "gains of effect, range (not significant)", "setting": "human cancer cell lines; 4SP65-cisplatin combined, HMESO1 and PPMMill cells", "result": "1.1- to 1.3 fold"}, {"measurement": "LC99, All cell lines", "setting": "human cancer cell lines; [4]", "result": "11.2 ± 1.2", "unit": "µM"}, {"measurement": "TGI, All cell lines", "setting": "human cancer cell lines; [4]", "result": "6.8 ± 1.1", "unit": "µM"}, {"measurement": "LC99, range for individual cell lines", "setting": "human cancer cell lines; [5]", "result": "3.0 to 21.1", "unit": "µM"}, {"measurement": "TGI, range for individual cell lines", "setting": "human cancer cell lines; [5]", "result": "2.0 to 16.3", "unit": "µM"}, {"measurement": "fold more effective as a cytostatic agent than PRIMA-1 or APR-246", "setting": "human cancer cell lines; TP53 mutant cells", "result": "2.3- to 30 fold"}, {"measurement": "fold more effective as a cytostatic agent than PRIMA-1 or APR-246", "setting": "human cancer cell lines; TP53 wild-type cells", "result": "4.3- to 21 fold"}, {"measurement": "LC99, TP53 Wild-Type", "setting": "human cancer cell lines; [6]", "result": "14.4 ± 1.6", "unit": "µM"}, {"measurement": "TGI, TP53 Wild-Type", "setting": "human cancer cell lines; [6]", "result": "9.5 ± 2.0", "unit": "µM"}, {"measurement": "LC99, TP53 Mutant", "setting": "human cancer cell lines; [7]", "result": "9.1 ± 0.9", "unit": "µM"}, {"measurement": "TGI, TP53 Mutant", "setting": "human cancer cell lines; [7]", "result": "4.4 ± 0.9", "unit": "µM"}, {"measurement": "fold more potent than amifostine as a cytostatic agent, average", "setting": "human cancer cell lines; [8]", "result": 55, "unit": "fold"}, {"measurement": "fold more potent than amifostine as a cytostatic agent, range", "setting": "human cancer cell lines; [8]", "result": "45- to 63 fold"}, {"measurement": "Fold difference in drug potency 4SP65 vs 1LP65: GI50", "setting": "human cancer cell lines; averages over 11 cell lines", "result": 10.2}, {"measurement": "Fold difference in drug potency 4SP65 vs 1LP65: IC50", "setting": "human cancer cell lines; averages over 11 cell lines", "result": 9.7}, {"measurement": "Fold difference in drug potency 4SP65 vs 1LP65: LC50", "setting": "human cancer cell lines; averages over 11 cell lines", "result": 10.4}, {"measurement": "Fold difference in drug potency 4SP65 vs 1LP65: LC99", "setting": "human cancer cell lines; averages over 11 cell lines", "result": 11.3}, {"measurement": "Fold difference in drug potency 4SP65 vs 1LP65: TGI", "setting": "human cancer cell lines; averages over 11 cell lines", "result": 10.2}, {"measurement": "Fold difference in drug potency vs amifostine: GI50", "setting": "human cancer cell lines; [9]", "result": "> 45"}, {"measurement": "Fold difference in drug potency vs amifostine: IC50", "setting": "human cancer cell lines; [9]", "result": "> 57"}, {"measurement": "Fold difference in drug potency vs amifostine: TGI", "setting": "human cancer cell lines; [9]", "result": "> 63"}, {"measurement": "fold more potent than 1LP65, range", "setting": "human cancer cell lines; depending on the dose-response metric", "result": "9.7- to 11.3 fold"}, {"measurement": "fold greater effect than amifostine", "setting": "human cancer cell lines; four cell lines where amifostine GI50 <100 µM", "result": 38, "unit": "fold"}, {"measurement": "GI50", "setting": "human cancer cell lines; read-out: GI50, All cell lines, 4SP65: average across 15 cell lines, 48 h", "result": "4.1 ± 0.8", "unit": "µM"}, {"measurement": "GI50", "setting": "human cancer cell lines; read-out: GI50, TP53 Mutant, average of HCC38, MDA-MB-231, H1975, HMESO1, PANC1, DU145, PC3", "result": "2.6 ± 0.8", "unit": "µM"}, {"measurement": "GI50", "setting": "human cancer cell lines; read-out: GI50, TP53 Wild-Type, average of A549, H460, PPMMill, LNCaP", "result": "5.8 ± 1.4", "unit": "µM"}, {"measurement": "GI50", "setting": "human cancer cell lines; read-out: GI50, range for individual cell lines, 15 cell lines for 4SP65, 11 for 1LP65", "result": "0.7 to 10.6", "unit": "µM"}, {"measurement": "GI50", "setting": "human cancer cell lines; read-out: GI50 range, seven cell lines compared with NCI data (Table 5)", "result": "0.7 to 9.4", "unit": "µM"}, {"measurement": "GI50", "setting": "human cancer cell lines; read-out: average GI50, four cell lines where amifostine GI50 <100 µM", "result": 1.7, "unit": "µM"}, {"measurement": "fold potency greater than predicted by four versus one WR1065/molecule", "setting": "human cancer cell lines; versus 1LP65", "result": "~ 2.5 fold"}, {"measurement": "CC50", "setting": "Prostate LNCaP cells", "result": "7.3 ± 1.8", "unit": "µM"}, {"measurement": "GI50", "setting": "Prostate LNCaP cells; [1]", "result": "2.5 ± 1", "unit": "µM"}, {"measurement": "IC50", "setting": "Prostate LNCaP cells; [1]", "result": "3.1 ± 1.5", "unit": "µM"}, {"measurement": "LC99", "setting": "Prostate LNCaP cells; [1]", "result": "10.1 ± 1.0", "unit": "µM"}]}
